Consider 26 compounds from US9133181B2, “Substituted 6-(4-hydroxy-phenyl)-1H-pyrazolo[3,4-b]pyridine derivatives as kinase inhibitors” (SANOFI, priority 2012, dated 2015).

In the experiment the target is T1, human full-length recombinant PKC βII (Homo sapiens, UniProt P05771).
T1 construct: Active human full-length recombinant PKC βII; purchased Invitrogen GmbH, Darmstadt, Germany
T1 sequence (P05771 1-673 isoform P05771-2): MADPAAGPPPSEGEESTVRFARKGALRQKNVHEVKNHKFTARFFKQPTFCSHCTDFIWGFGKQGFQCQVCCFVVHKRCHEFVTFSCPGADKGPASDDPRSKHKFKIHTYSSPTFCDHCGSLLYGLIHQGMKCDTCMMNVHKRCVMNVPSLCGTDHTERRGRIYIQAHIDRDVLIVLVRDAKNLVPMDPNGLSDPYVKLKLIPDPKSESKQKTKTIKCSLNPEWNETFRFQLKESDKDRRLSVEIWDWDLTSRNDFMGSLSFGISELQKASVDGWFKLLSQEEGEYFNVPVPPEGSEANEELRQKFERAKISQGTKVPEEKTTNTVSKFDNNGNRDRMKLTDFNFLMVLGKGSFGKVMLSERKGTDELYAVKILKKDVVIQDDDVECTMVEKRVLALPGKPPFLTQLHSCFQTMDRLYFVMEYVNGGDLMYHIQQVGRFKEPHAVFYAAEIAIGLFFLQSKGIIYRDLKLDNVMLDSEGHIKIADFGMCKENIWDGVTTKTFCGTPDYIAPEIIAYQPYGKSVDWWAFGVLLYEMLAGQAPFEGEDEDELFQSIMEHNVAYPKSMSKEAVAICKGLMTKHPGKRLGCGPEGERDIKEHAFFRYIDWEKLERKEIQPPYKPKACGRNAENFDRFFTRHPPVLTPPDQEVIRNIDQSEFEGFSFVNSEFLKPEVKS
Briefly: Determination of PKC βII inhibition (Caliper mobility shift kinase assay). The following applies: final compound concentration 1.14 μM (±0.15 μM); 60 min incubation at 32° C. The experiment is classed as biochemical. Here is the method: Determination of PKC βII Inhibition
PKC βII inhibition was determined according to the following protocol:
Active human full-length recombinant PKC βII and the peptide substrate, Fluorescein-RFARKGSLRQKNV, were purchased from Invitrogen GmbH, Darmstadt, Germany. Adenosine-5′-triphosphate (ATP), bovine serum albumine (BSA), dimethylsulphoxide (DMSO), 4-(2-hydroxyethyl)piperazine-1-ethanesulfonic acid (Hepes), Triton X-100, 1,2-Dioleoyl-sn-glycerol (DAG), L-α-Phosphatidyl-L-serine (PS), calcium chloride (CaCl2), and Pluronic F-68 were purchased from Sigma-Aldrich, Munich, Germany. Magnesium chloride, 1 M sodium hydroxide solution, 1M hydrochloric acid solution and EDTA were obtained from Merck Biosciences, Darmstadt, Germany.
Test compounds were diluted to three times the test concentration in buffer 1 (30 mM Hepes-NaOH, pH 7.4, 0.01% Pluronic F-68 and 3% (v/v) DMSO). The […] enzyme was diluted to a concentration of 30 ng/ml in buffer 2 (30 mM Hepes-NaOH, pH 7.4, 15 mM MgCl2, 150 μM CaCl2, 150 μg/ml PS, 60 μg/ml DAG, and 0.045% (w/v) Triton X-100). The peptide substrate and ATP were diluted to concentrations of 3 μM and 120 μM, respectively, in buffer 2. Two μl of the compound solution were mixed with 2 μl of the diluted enzyme in a 384-well small volume microtiter plate (Greiner, Bio-One, Frickenhausen, Germany), and the kinase reaction was initiated by addition of 2 μl of the solution containing peptide substrate and ATP. After 60 min incubation at 32° C., the reaction was stopped by addition of 20 μl of a solution containing 130 mM Hepes-NaOH, pH 7.4, 0.0195% (v/v) Brij-35, 6.5 mM EDTA, 0.13% chip coating reagent 3 (Caliper Lifescience Inc, Hopkinton, Mass.) and 6.5% (v/v) DMSO. Phosphorylation of the substrate peptide was then detected on a Caliper 3000 instrument essentially as described by Pommereau et al (J. Biomol. Screening 2004, 9(5), 409-416). Separation conditions were as follows: Pressure −0.8 psi, upstream voltage −3000 V, downstream voltage −800 V. Positive controls (buffer 1 instead of compound) and negative controls (buffer 1 instead of compound and buffer 2 instead of kinase solution) were run in parallel on each plate. Fractional turnover (R) was determined as the height of the peak of the phosphorylated peptide product divided by the sum of the unphosphorylated substrate and phosphorylated product peak heights. Percent-inhibition values for the test compounds were determined using the formula % Inhibition=100*(1−(Rcompound−Rnegative control)/(Rpositive control−Rnegative control).
In the following table % inhibition values observed with example compounds at a final concentration of 1.14 μM (±0.15 μM) are listed: […]
As usually defined, the inhibition is the change of the read-out against control, counted positive when it falls. With `Cc1n[nH]c2nc(-c3ccc(O)cc3F)cc(CN3C[C@@H](C)NC[C@@H]3C)c12` [Example 27, 4-[4-((2S,5R)-2,5-Dimethyl-piperazin-1-ylmethyl)-3-methyl-1H-pyrazolo[3,4-b]pyridin-6-yl]-3-fluoro-phenol], the inhibition at 1.14 µM is 83%.

One may read the % Inhibition as how much of the control response was suppressed. For `Cc1n[nH]c2nc(-c3ccc(O)cc3)cc(CN3C[C@@H](C)NC[C@@H]3c3ccccc3)c12` (relative stereo) [Example 43, 4-[3-Methyl-4-(trans-5-methyl-2-phenyl-piperazin-1-ylmethyl)-1H-pyrazolo[3,4-b]pyridin-6-yl]-phenol], the “% Inhibition” value amounted to 58%.

On to `Cc1n[nH]c2nc(-c3ccc(O)cc3F)cc(CN3CCNC[C@H]3c3ccc(C(C)C)cc3)c12` [Example 102, 3-Fluoro-4-{4-[(R)-2-(4-isopropyl-phenyl)-piperazin-1-ylmethyl]-3-methyl-1H-pyrazolo[3,4-b]pyridin-6-yl}-phenol], for which the inhibition at 1.14 µM came to 85%.

For the compound `Cc1n[nH]c2nc(-c3ccc(O)cc3F)cc(CN3CCNCC3c3cc(F)cc(F)c3)c12` (centres unmarked) [Example 9, 4-{4-[2-(3,5-Difluoro-phenyl)-piperazin-1-ylmethyl]-3-methyl-1H-pyrazolo[3,4-b]pyridin-6-yl}-3-fluoro-phenol], the inhibition at 1.14 µM was 81%.

In the case of `COCC(=O)N1CC(C)(C)N(Cc2cc(-c3ccc(O)cc3F)nc3[nH]nc(C)c23)CC1(C)C` [Example 75, 1-{4-[6-(2-Fluoro-4-hydroxy-phenyl)-3-methyl-1H-pyrazolo[3,4-b]pyridin-4-ylmethyl]-2,2,5,5-tetramethyl-piperazin-1-yl}-2-methoxy-ethanone], the inhibition at 1.14 µM was found to be 96%.

Turning to `CCC1(CC)CNC(C)(C)CN1Cc1cc(-c2ccc(O)cc2F)nc2[nH]nc(C)c12` [Example 32, 4-[4-(2,2-Diethyl-5,5-dimethyl-piperazin-1-ylmethyl)-3-methyl-1H-pyrazolo[3,4-b]pyridin-6-yl]-3-fluoro-phenol], the inhibition at 1.14 µM stood at 101%.

As to `Cc1n[nH]c2nc(-c3ccc(O)cc3F)cc(CN3CC4(CCCC4)NC[C@@H]3C)c12` [Example 137, 3-Fluoro-4-[3-methyl-4-((S)-8-methyl-6,9-diaza-spiro[4.5]dec-9-ylmethyl)-1H-pyrazolo[3,4-b]pyridin-6-yl]-phenol], the inhibition at 1.14 µM was 98%.

As for `Cc1n[nH]c2nc(-c3ccc(O)cc3F)cc(CN3CC(C)NCC3(C)C)c12` (centres unmarked) [Example 11, 3-Fluoro-4-[3-methyl-4-(2,2,5-trimethyl-piperazin-1-ylmethyl)-1H-pyrazolo[3,4-b]pyridin-6-yl]-phenol], the inhibition at 1.14 µM was 104%.

On to `CCC1(NCc2cc(-c3ccc(O)cc3)nc3[nH]nc(C)c23)CCCNC1` (centres unmarked) [Example 46, 4-{4-[(3-Ethyl-piperidin-3-ylamino)-methyl]-3-methyl-1H-pyrazolo[3,4-b]pyridin-6-yl} phenol], for which the inhibition at 1.14 µM turned out to be 90%.

On to `Cc1n[nH]c2nc(-c3ccc(O)cc3F)cc(CN3C[C@H](C)NCC34CCCC4)c12` [Example 127, 3-Fluoro-4-[3-methyl-4-((S)-8-methyl-6,9-diaza-spiro[4.5]dec-6-ylmethyl)-1H-pyrazolo[3,4-b]pyridin-6-yl]-phenol], for which the inhibition at 1.14 µM was 87%.

Turning to `Oc1ccc(-c2cc(CN3CCNCC3)c3c(C4CC4)n[nH]c3n2)cc1` [Example 95, 4-(3-Cyclopropyl-4-piperazin-1-ylmethyl-1H-pyrazolo[3,4-b]pyridin-6-yl)-phenol], the inhibition at 1.14 µM came out at 53%.

For `Cc1n[nH]c2nc(-c3ccc(O)cc3F)cc(CN3C[C@@H](c4ccccc4)NC[C@@H]3C)c12` [Example 99, 3-Fluoro-4-[3-methyl-4-((2S,5R)-2-methyl-5-phenyl-piperazin-1-ylmethyl)-1H-pyrazolo[3,4-b]pyridin-6-yl]-phenol], the inhibition at 1.14 µM is 92%.

In the case of `Cc1n[nH]c2nc(-c3ccc(O)cc3F)cc(CN3CC(C)(C)NC[C@]3(C)C3CC3)c12` [Example 125, 4-[4-((S)-2-Cyclopropyl-2,5,5-trimethyl-piperazin-1-ylmethyl)-3-methyl-1H-pyrazolo[3,4-b]pyridin-6-yl]-3-fluoro-phenol], the inhibition at 1.14 µM was determined as 87%.

Take `Cc1n[nH]c2nc(-c3ccc(O)cc3F)cc(CN3CCNC[C@]3(C)c3ccccc3)c12` [Example 117, 3-Fluoro-4-[3-methyl-4-((S)-2-methyl-2-phenyl-piperazin-1-ylmethyl)-1H-pyrazolo[3,4-b]pyridin-6-yl]-phenol]: the inhibition at 1.14 µM was 99%.

`CCc1n[nH]c2nc(-c3ccc(O)cc3)cc(CN3CCNCC3)c12` [Example 96, 4-(3-Ethyl-4-piperazin-1-ylmethyl-1H-pyrazolo[3,4-b]pyridin-6-yl)-phenol]: the inhibition at 1.14 µM amounted to 74%.

For `Cc1n[nH]c2nc(-c3ccc(O)cc3F)cc(CN3CC(C)(C)NCC3(C)C)c12` [Example 28, 3-Fluoro-4-[3-methyl-4-(2,2,5,5-tetramethyl-piperazin-1-ylmethyl)-1H-pyrazolo[3,4-b]pyridin-6-yl]-phenol], the inhibition at 1.14 µM came out at 97%.

In the case of `CC[C@@]1(C)CNC(C)(C)CN1Cc1cc(-c2ccc(O)cc2)nc2[nH]nc(C)c12` [Example 142, 4-[4-((S)-2-Ethyl-2,5,5-trimethyl-piperazin-1-ylmethyl)-3-methyl-1H-pyrazolo[3,4-b]pyridin-6-yl]-phenol], the inhibition at 1.14 µM is 100%.

As to `CCNC(=O)N1CC(C)(C)N(Cc2cc(-c3ccc(O)cc3)nc3[nH]nc(C)c23)CC1(C)C` [Example 88, 4-[6-(4-Hydroxy-phenyl)-3-methyl-1H-pyrazolo[3,4-b]pyridin-4-ylmethyl]-2,2,5,5-tetramethyl-piperazine-1-carboxylic acid ethylamide], the inhibition at 1.14 µM stood at 89%.

`COCC(=O)N1CC(C)(C)N(Cc2cc(-c3ccc(O)cc3)nc3[nH]nc(C)c23)CC1(C)C` [Example 90, 1-{4-[6-(4-Hydroxy-phenyl)-3-methyl-1H-pyrazolo[3,4-b]pyridin-4-ylmethyl]-2,2,5,5-tetramethyl-piperazin-1-yl}-2-methoxy-ethanone]: the inhibition at 1.14 µM is 99%.

Turning to `Cc1n[nH]c2nc(-c3ccc(O)cc3F)cc(CN3C[C@@H](c4ccccc4)NC[C@@H]3C)c12` (relative stereo) [Example 29, 3-Fluoro-4-[3-methyl-4-(trans-2-methyl-5-phenyl-piperazin-1-ylmethyl)-1H-pyrazolo[3,4-b]pyridin-6-yl]-phenol], the “% Inhibition” value is given as 90%.

Regarding `Cc1n[nH]c2nc(-c3ccc(O)cc3F)cc(CN3CC(C)(C)NC[C@@H]3C(C)C)c12` [Example 133, 3-Fluoro-4-[4-((S)-2-isopropyl-5,5-dimethyl-piperazin-1-ylmethyl)-3-methyl-1H-pyrazolo[3,4-b]pyridin-6-yl]-phenol], the inhibition at 1.14 µM was found to be 103%.

Consider `CC[C@@H]1CNC(C)(C)CN1Cc1cc(-c2ccc(O)cc2F)nc2[nH]nc(C)c12` [Example 144, 4-[4-((R)-2-Ethyl-5,5-dimethyl-piperazin-1-ylmethyl)-3-methyl-1H-pyrazolo[3,4-b]pyridin-6-yl]-3-fluoro-phenol], for which the inhibition at 1.14 µM is 98%.

Take `CCC1(CC)CN(Cc2cc(-c3ccc(O)cc3F)nc3[nH]nc(C)c23)C(C)(C)CN1` [Example 22, 4-[4-(5,5-Diethyl-2,2-dimethyl-piperazin-1-ylmethyl)-3-methyl-1H-pyrazolo[3,4-b]pyridin-6-yl]-3-fluoro-phenol]: the inhibition at 1.14 µM came out at 89%.

For `Cc1n[nH]c2nc(-c3ccc(O)cc3F)cc(CN3CCCNC(C)C3)c12` (centres unmarked) [Example 25, 3-Fluoro-4-[3-methyl-4-(3-methyl-[1,4]diazepan-1-ylmethyl)-1H-pyrazolo[3,4-b]pyridin-6-yl]-phenol], the inhibition at 1.14 µM turned out to be 102%.

Take `Cc1n[nH]c2nc(-c3ccc(O)cc3F)cc(CN3C[C@](C)(C4CC4)NCC3(C)C)c12` [Example 150, 4-[4-((S)-5-Cyclopropyl-2,2,5-trimethyl-piperazin-1-ylmethyl)-3-methyl-1H-pyrazolo[3,4-b]pyridin-6-yl]-3-fluoro-phenol]: the inhibition at 1.14 µM was determined as 100%.

As for `Cc1n[nH]c2nc(-c3ccc(O)cc3F)cc(CN3CCNCC3(C)c3ccccc3)c12` (centres unmarked) [Example 12, 3-Fluoro-4-[3-methyl-4-(2-methyl-2-phenyl-piperazin-1-ylmethyl)-1H-pyrazolo[3,4-b]pyridin-6-yl]-phenol], the inhibition at 1.14 µM was 94%.
